{"source": "paper PMC12901815", "about": "(Environmental Analysis, Health and Toxicology, 2025)", "origin": "cited, not measured here", "details": "male Alderley Park rats, oral administration; cited from earlier work"}
{"substance": "polyaminopropylbiguanide [PHMB]", "values": [{"measurement": "tissue distribution of radioactivity", "value": "the highest radioactivity occurred in adipose tissue, followed by kidneys and liver, without detectable brain accumulation"}]}
